Common to all, as to assay: Dundee protein kinase screen
Common to all, as to type: biochemical

One assay deals with BRSK1 (Homo sapiens, UniProt Q8TDC3). Conditions: BRSK1, 1µM; read-out: %Remaining activity at 1µM NU6300. The protocol: (§1) Prior to determining its cellular activity, we carried out a screen to assess its selectivity against a panel of 131 protein kinases under conditions that would not distinguish between a reversible or irreversible mode of action. […] These 13 kinases and 29 additional kinases, selected for their known sensitivity to other inhibitors within the purine series, were then tested in a modified screening format in which the assay was repeated following a 4-hr pre-incubation (Table S3B). […] However, conformational flexibility around the active site may promote such an interaction with a residue from another part of the structure ([Martin et al., 2012]).
(§2) Table S3, Related to Figure 4. NCL-0006300 protein kinase selectivity. (A) NU6300 was tested at a single concentration of 1µM against 131 protein kinases present in a Dundee protein kinase screen (Bain et al., 2007). Values given are % activity remaining and are the average of duplicate measurements: 0-25% (red), 26-50% (yellow), 51-80% (black) and above 81% (green). The kinase domain sequences (as defined by UniProt) of […]
(§3) have a lysine residue at a position close to CDK2 Lys88 or Lys89. However, in the structure of tyrosine-protein kinase BTK (PDB ID: 3GEN) the residue equivalent to CDK2 Asp86 is Cys481 and therefore there is the potential for a covalent adduct to be formed through this side chain. Ephrin type-B receptor 3 (UniProt entry P54753) also encodes a cysteine residue (Cys717) that by sequence alignment would be predicted to be close to the CDK2 lysine pair. (B) Selected kinases were re-tested in the Dundee kinase screen against NU6300 at a single concentration of 0.5 µM both in the standard assay format and following a 4 hour pre-incubation in the presence of NU6300. Kinases which have very low activity after the 4 hour incubation so that results might not be wholly reliable are boxed in salmon. Kinases where the activity after a 4 hour pre-incubation is < 50% that in the standard assay format are highlighted in red.

In a further assay the target is MEKK1 (Homo sapiens, UniProt Q13233). To be noted: MEKK1, 1µM; read-out: %Remaining activity at 1µM NU6300. The protocol: as §1, §2, §3
The target in a further assay is ERK1 (Homo sapiens, UniProt P27361). To be noted: ERK1, 1µM; read-out: %Remaining activity at 1µM NU6300. The protocol: as §1, §2, §3
For a further assay, the target named is T1, MST2 (Homo sapiens, UniProt Q13188).
T1 sequence (Q13188 1-491): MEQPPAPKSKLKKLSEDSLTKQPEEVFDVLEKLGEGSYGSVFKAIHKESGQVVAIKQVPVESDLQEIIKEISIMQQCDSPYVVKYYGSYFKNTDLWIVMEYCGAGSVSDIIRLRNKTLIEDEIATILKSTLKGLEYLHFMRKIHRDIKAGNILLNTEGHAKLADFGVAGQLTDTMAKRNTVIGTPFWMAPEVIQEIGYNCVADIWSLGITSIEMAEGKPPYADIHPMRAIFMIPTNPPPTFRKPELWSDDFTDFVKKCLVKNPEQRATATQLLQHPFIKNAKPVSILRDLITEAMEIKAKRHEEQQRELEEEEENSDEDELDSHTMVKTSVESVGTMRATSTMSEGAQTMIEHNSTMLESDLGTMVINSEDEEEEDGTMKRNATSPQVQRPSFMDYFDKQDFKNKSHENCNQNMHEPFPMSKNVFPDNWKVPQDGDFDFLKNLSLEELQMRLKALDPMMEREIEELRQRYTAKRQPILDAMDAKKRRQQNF
Conditions: MST2, 1µM; read-out: %Remaining activity at 1µM NU6300. How it is done: as §1, §2, §3

In another assay the target is TrkA (Homo sapiens, UniProt P04629). To be noted: read-out: %Remaining activity at 1µM NU6300. The protocol:
as §1, §2, §3

For the next assay, the target named is T2, ASK1 (Homo sapiens, UniProt Q99683).
T2 sequence (Q99683 1-1374): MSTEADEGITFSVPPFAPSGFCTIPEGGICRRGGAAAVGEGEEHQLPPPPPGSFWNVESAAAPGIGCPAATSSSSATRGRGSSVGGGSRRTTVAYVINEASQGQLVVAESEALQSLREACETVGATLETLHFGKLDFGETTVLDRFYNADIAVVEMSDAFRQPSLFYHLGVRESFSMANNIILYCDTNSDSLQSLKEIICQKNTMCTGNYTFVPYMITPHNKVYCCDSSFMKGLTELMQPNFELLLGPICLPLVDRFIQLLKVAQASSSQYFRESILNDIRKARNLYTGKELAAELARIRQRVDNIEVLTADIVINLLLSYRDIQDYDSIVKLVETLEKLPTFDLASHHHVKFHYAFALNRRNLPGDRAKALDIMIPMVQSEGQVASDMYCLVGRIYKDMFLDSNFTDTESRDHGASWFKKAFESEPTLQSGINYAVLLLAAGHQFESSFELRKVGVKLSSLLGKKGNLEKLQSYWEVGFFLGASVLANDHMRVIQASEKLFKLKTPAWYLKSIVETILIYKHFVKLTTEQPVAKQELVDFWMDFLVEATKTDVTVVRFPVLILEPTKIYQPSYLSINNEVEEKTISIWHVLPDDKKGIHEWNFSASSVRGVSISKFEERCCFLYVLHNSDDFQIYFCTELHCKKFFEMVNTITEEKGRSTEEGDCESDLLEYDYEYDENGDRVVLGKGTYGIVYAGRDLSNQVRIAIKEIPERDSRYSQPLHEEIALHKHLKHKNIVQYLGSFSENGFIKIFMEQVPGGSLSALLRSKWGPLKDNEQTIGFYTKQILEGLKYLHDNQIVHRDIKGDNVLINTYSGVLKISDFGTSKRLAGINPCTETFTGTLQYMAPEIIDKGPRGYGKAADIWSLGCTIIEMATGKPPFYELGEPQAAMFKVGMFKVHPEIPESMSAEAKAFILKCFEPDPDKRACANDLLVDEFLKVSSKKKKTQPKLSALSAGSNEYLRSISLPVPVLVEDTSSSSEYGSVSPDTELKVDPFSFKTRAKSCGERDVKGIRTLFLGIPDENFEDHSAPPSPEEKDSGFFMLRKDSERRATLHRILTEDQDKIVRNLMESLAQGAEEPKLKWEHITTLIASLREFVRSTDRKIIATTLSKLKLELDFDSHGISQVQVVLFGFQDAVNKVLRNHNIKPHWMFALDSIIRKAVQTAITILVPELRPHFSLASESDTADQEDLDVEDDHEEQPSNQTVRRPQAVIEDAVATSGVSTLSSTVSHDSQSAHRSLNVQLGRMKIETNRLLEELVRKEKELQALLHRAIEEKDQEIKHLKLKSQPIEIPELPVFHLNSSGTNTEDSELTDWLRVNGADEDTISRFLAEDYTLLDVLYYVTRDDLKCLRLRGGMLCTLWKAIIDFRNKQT
To be noted: ASK1, 1µM; read-out: %Remaining activity at 1µM NU6300. The protocol:
as §1, §2, §3

We go through 1 compound from publication PMC4579270, “Identification and Characterization of an Irreversible Inhibitor of CDK2” (Chemistry & Biology, 2015).

Broadly, the remaining activity is the share of the control activity or signal that is left under treatment.

Sequence of BRSK1 (Q8TDC3 whole entry): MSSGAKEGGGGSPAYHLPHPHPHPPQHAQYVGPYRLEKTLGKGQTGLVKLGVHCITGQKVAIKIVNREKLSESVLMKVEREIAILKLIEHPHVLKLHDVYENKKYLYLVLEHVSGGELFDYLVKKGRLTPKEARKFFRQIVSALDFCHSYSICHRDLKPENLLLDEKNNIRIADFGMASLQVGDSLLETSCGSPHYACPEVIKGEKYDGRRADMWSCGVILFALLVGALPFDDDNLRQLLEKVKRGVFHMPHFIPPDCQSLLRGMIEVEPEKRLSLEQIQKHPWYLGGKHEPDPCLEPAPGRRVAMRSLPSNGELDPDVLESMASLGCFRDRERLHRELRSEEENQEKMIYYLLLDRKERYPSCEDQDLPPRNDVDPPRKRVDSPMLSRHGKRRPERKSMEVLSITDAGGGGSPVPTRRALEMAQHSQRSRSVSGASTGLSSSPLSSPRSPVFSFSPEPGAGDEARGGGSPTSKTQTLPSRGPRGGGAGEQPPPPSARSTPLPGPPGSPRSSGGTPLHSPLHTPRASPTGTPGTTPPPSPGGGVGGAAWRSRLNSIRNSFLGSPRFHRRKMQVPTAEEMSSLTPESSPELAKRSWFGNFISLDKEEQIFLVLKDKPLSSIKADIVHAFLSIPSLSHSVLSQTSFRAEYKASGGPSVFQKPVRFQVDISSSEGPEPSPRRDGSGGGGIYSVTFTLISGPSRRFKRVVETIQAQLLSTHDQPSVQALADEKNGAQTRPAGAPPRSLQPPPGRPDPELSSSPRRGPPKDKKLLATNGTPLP
Sequence of ERK1 (P27361 whole entry): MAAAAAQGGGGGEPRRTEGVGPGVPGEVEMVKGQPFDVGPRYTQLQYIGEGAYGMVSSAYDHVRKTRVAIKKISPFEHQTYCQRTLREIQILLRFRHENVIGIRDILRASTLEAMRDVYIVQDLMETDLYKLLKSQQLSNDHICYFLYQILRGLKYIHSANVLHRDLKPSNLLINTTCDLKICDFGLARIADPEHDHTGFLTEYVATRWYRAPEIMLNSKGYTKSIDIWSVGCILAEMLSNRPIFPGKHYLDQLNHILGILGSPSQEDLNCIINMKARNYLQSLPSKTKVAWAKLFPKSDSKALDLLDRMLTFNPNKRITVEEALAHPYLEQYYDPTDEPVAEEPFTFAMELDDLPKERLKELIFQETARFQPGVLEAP
Sequence of MEKK1 (Q13233 whole entry): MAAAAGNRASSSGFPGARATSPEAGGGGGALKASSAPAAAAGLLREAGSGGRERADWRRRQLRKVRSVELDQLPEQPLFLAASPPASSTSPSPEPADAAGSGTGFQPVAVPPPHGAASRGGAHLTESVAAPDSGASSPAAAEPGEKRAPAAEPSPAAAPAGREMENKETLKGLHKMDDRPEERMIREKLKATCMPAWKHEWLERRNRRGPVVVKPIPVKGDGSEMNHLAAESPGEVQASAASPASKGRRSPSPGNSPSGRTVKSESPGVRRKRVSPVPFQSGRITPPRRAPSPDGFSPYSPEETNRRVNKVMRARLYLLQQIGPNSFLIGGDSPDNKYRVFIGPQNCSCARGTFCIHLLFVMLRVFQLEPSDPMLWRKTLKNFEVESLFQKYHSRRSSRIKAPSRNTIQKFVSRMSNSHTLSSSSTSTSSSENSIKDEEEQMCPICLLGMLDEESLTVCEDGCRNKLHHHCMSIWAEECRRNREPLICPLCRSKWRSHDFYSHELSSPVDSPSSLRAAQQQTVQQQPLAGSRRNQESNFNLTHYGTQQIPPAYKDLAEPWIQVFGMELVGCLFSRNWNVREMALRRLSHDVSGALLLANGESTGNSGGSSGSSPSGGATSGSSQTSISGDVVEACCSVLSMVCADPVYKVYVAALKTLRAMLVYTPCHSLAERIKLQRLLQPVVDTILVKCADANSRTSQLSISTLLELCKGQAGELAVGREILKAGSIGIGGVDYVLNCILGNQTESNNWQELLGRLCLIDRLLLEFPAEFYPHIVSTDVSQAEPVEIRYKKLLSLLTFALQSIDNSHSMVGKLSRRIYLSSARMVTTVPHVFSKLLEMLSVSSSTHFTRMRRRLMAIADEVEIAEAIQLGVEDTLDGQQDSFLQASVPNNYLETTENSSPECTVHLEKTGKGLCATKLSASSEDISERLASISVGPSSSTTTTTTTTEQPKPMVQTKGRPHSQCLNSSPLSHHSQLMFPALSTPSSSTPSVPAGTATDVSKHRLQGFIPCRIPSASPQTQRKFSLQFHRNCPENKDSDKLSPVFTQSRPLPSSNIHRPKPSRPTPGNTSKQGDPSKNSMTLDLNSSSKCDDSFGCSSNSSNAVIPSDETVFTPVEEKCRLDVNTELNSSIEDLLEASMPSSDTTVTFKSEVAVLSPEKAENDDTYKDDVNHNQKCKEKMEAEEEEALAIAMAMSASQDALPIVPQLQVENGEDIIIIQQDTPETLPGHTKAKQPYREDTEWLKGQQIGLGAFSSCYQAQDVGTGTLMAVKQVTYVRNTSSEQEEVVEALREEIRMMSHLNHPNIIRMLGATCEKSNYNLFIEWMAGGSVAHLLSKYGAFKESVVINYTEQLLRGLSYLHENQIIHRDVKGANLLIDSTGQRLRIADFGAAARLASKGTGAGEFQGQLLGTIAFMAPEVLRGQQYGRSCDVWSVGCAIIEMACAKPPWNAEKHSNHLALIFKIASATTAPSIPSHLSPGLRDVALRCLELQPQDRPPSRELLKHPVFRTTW
Sequence of TrkA (P04629 33-796): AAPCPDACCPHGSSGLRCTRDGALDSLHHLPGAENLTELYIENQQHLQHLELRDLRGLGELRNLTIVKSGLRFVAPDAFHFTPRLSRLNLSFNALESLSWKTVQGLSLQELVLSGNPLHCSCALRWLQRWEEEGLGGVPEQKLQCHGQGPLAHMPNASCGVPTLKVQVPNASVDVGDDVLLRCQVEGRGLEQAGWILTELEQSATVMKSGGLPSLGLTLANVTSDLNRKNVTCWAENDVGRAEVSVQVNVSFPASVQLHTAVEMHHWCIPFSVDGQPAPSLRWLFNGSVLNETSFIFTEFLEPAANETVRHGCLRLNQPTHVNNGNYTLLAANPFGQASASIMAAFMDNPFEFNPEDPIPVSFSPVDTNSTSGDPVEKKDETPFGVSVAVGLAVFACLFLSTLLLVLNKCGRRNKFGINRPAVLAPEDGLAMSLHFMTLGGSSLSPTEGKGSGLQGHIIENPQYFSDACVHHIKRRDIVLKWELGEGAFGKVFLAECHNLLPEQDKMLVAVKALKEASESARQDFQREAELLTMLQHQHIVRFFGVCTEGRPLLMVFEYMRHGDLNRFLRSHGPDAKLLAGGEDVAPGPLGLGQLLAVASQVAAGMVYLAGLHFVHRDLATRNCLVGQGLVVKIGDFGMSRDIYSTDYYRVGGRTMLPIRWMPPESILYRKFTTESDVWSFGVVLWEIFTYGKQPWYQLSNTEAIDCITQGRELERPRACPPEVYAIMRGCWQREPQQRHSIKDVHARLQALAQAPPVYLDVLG

Regarding `C=CS(=O)(=O)c1ccc(Nc2nc(OCC3CCCCC3)c3nc[nH]c3n2)cc1` [NU6300, 6-(cyclohexylmethoxy)-N-(4-(vinylsulfonyl)phenyl)-9H-purin-2-amine], the remaining activity at 1 µM on BRSK1 is 79%; on MEKK1, 89%; at ERK1, 70%; on MST2, 41%; at TrkA, 59%; on ASK1 it was 49%.
